According to ChEMBL document CHEMBL2311467, “Microwave-assisted synthesis of pyrimido[4,5-b][1,6]naphthyridin-4(3H)-ones with potential antitumor activity” (Eur J Med Chem, 2013):

Legend:
Format in all cases: functional
MDA-MB-468 = experiment: Cytotoxicity against human MDA-MB-468 after 48 hrs by SRB assay; details: MDA-MB-468, 48 h
BT-549 = experiment: Cytotoxicity against human BT549 after 48 hrs by SRB assay; details: BT-549, 48 h
T47D = experiment: Cytotoxicity against human T47D after 48 hrs by SRB assay
Hs-578T = experiment: Cytotoxicity against human Hs578T after 48 hrs by SRB assay
MDA-MB-231 = experiment: Cytotoxicity against human MDA-MB-231 after 48 hrs by SRB assay; details: MDA-MB-231, 48 h
MCF7 = experiment: Cytotoxicity against human MCF7 after 48 hrs by SRB assay; details: MCF7, 48 h
UO-31 = experiment: Cytotoxicity against human UO31 after 48 hrs by SRB assay; details: UO-31, 48 h
TK-10 = experiment: Cytotoxicity against human TK10 after 48 hrs by SRB assay; details: TK-10, 48 h
SN12C = experiment: Cytotoxicity against human SN12C after 48 hrs by SRB assay
RXF 393 = experiment: Cytotoxicity against human RXF393 after 48 hrs by SRB assay; details: RXF 393, 48 h
CAKI-1 = experiment: Cytotoxicity against human CAKI-1 after 48 hrs by SRB assay; details: CAKI-1, 48 h
SK-OV-3 = experiment: Cytotoxicity against human SKOV3 after 48 hrs by SRB assay; details: SK-OV-3, 48 h
NCI/ADR-RES = experiment: Cytotoxicity against human NCI/ADR-RES after 48 hrs by SRB assay
OVCAR-8 = experiment: Cytotoxicity against human OVCAR8 after 48 hrs by SRB assay; details: OVCAR-8, 48 h
OVCAR-5 = experiment: Cytotoxicity against human OVCAR5 after 48 hrs by SRB assay; details: OVCAR-5, 48 h
IGROV-1 = experiment: Cytotoxicity against human IGROV1 after 48 hrs by SRB assay; details: IGROV-1, 48 h
UACC-62 = experiment: Cytotoxicity against human UACC62 after 48 hrs by SRB assay; details: UACC-62, 48 h
UACC-257 = experiment: Cytotoxicity against human UACC257 after 48 hrs by SRB assay; details: UACC-257, 48 h
SK-MEL-5 = experiment: Cytotoxicity against human SK-MEL-5 after 48 hrs by SRB assay; details: SK-MEL-5, 48 h
SK-MEL-28 = experiment: Cytotoxicity against human SK-MEL-28 after 48 hrs by SRB assay; details: SK-MEL-28, 48 h
MDA-MB-435 = experiment: Cytotoxicity against human MDA-MB-435 after 48 hrs by SRB assay; details: MDA-MB-435, 48 h
M14 = experiment: Cytotoxicity against human M14 after 48 hrs by SRB assay; details: M14, 48 h
U-251 = experiment: Cytotoxicity against human U251 after 48 hrs by SRB assay; details: U-251, 48 h
LOX IMVI = experiment: Cytotoxicity against human LOXIMVI after 48 hrs by SRB assay
Malme-3M = experiment: Cytotoxicity against human MALME-3M after 48 hrs by SRB assay
SF-539 = experiment: Cytotoxicity against human SF539 after 48 hrs by SRB assay; details: SF-539, 48 h
SNB-19 = experiment: Cytotoxicity against human SNB19 after 48 hrs by SRB assay; details: SNB-19, 48 h
SNB-75 = experiment: Cytotoxicity against human SNB75 after 48 hrs by SRB assay; details: SNB-75, 48 h
SF-268 = experiment: Cytotoxicity against human SF268 after 48 hrs by SRB assay; details: SF-268, 48 h
SF-295 = experiment: Cytotoxicity against human SF295 after 48 hrs by SRB assay; details: SF-295, 48 h
HT-29 = experiment: Cytotoxicity against human HT-29 after 48 hrs by SRB assay; details: HT-29, 48 h
KM12 = experiment: Cytotoxicity against human KM12 after 48 hrs by SRB assay; details: KM12, 48 h
HCC 2998 = experiment: Cytotoxicity against human HCC2998 after 48 hrs by SRB assay; details: HCC 2998, 48 h
HCT-116 = experiment: Cytotoxicity against human HCT116 after 48 hrs by SRB assay; details: HCT-116, 48 h
HCT-15 = experiment: Cytotoxicity against human HCT15 after 48 hrs by SRB assay; details: HCT-15, 48 h
NCI-H522 = experiment: Cytotoxicity against human NCI-H522 after 48 hrs by SRB assay; details: NCI-H522, 48 h
COLO 205 = experiment: Cytotoxicity against human COLO205 after 48 hrs by SRB assay; details: COLO 205, 48 h
NCI-H460 = experiment: Cytotoxicity against human NCI-H460 after 48 hrs by SRB assay; details: NCI-H460, 48 h
NCI-H23 = experiment: Cytotoxicity against human NCI-H23 after 48 hrs by SRB assay; details: NCI-H23, 48 h
NCI-H226 = experiment: Cytotoxicity against human NCI-H226 after 48 hrs by SRB assay; details: NCI-H226, 48 h
A549 = experiment: Cytotoxicity against human A549 after 48 hrs by SRB assay; details: A549, 48 h
[1] = read-out: LC50 (the source's name)

SMILES: COc1cc(/C=C2\CN(C)CC3=C2Nc2nc(SC)[nH]c(=O)c2C3c2cc(OC)c(OC)c(OC)c2)cc(OC)c1OC (configuration not stated)
- GI50 (MDA-MB-468): 2200 nM
- CC50 (MDA-MB-468; [1]): 38.8 µM
- GI50 (BT-549): 2980 nM
- CC50 (BT-549; [1]): 29.5 µM
- GI50 (T47D): 3.69 µM
- CC50 (T47D; [1]): > 100 µM
- GI50 (Hs-578T): 8.88 µM
- CC50 (Hs-578T; [1]): > 100 µM
- GI50 (MDA-MB-231): 3.14 µM
- CC50 (MDA-MB-231; [1]): 50.3 µM
- GI50 (MCF7): 4.98 µM
- CC50 (MCF7; [1]): 50 µM
- GI50 (UO-31): 1570 nM
- CC50 (UO-31; [1]): 7.54 µM
- GI50 (TK-10): 6.07 µM
- CC50 (TK-10; [1]): 46.9 µM
- GI50 (SN12C): 2980 nM
- CC50 (SN12C; [1]): 78.1 µM
- GI50 (RXF 393): 1810 nM
- CC50 (RXF 393; [1]): 6.61 µM
- GI50 (CAKI-1): 2150 nM
- CC50 (CAKI-1; [1]): 11.9 µM
- GI50 (SK-OV-3): 3.07 µM
- CC50 (SK-OV-3; [1]): 51 µM
- GI50 (NCI/ADR-RES): 3.6 µM
- CC50 (NCI/ADR-RES; [1]): > 100 µM
- GI50 (OVCAR-8): 2890 nM
- CC50 (OVCAR-8; [1]): > 100 µM
- GI50 (OVCAR-5): 4.83 µM
- CC50 (OVCAR-5; [1]): 48.7 µM
- GI50 (IGROV-1): 3.1 µM
- CC50 (IGROV-1; [1]): 85.8 µM
- GI50 (UACC-62): 2060 nM
- CC50 (UACC-62; [1]): 18.5 µM
- GI50 (UACC-257): 2240 nM
- CC50 (UACC-257; [1]): 29.1 µM
- GI50 (SK-MEL-5): 2830 nM
- CC50 (SK-MEL-5; [1]): 34.7 µM
- GI50 (SK-MEL-28): 2100 nM
- CC50 (SK-MEL-28; [1]): 8.79 µM
- GI50 (MDA-MB-435): 2510 nM
- CC50 (MDA-MB-435; [1]): 39.8 µM
- GI50 (M14): 2980 nM
- CC50 (M14; [1]): 50.9 µM
- GI50 (U-251): 1760 nM
- CC50 (U-251; [1]): 9.75 µM
- GI50 (LOX IMVI): 1660 nM
- CC50 (LOX IMVI; [1]): 9.37 µM
- GI50 (Malme-3M): 2820 nM
- CC50 (Malme-3M; [1]): 55.5 µM
- GI50 (SF-539): 3.64 µM
- CC50 (SF-539; [1]): > 100 µM
- GI50 (SNB-19): 8.65 µM
- CC50 (SNB-19; [1]): 50 µM
- GI50 (SNB-75): 7.36 µM
- CC50 (SNB-75; [1]): 57.8 µM
- GI50 (SF-268): 1660 nM
- CC50 (SF-268; [1]): 6.96 µM
- GI50 (SF-295): 2240 nM
- CC50 (SF-295; [1]): 26.9 µM
- GI50 (HT-29): 2350 nM
- CC50 (HT-29; [1]): 16.3 µM
- GI50 (KM12): 1700 nM
- CC50 (KM12; [1]): 6.08 µM
- GI50 (HCC 2998): 1910 nM
- CC50 (HCC 2998; [1]): 6.9 µM
- GI50 (HCT-116): 1660 nM
- CC50 (HCT-116; [1]): 6.05 µM
- GI50 (HCT-15): 2070 nM
- CC50 (HCT-15; [1]): 13.6 µM
- GI50 (NCI-H522): 2040 nM
- CC50 (NCI-H522; [1]): 15.5 µM
- GI50 (COLO 205): 2110 nM
- CC50 (COLO 205; [1]): 12.6 µM
- GI50 (NCI-H460): 2300 nM
- CC50 (NCI-H460; [1]): > 100 µM
- GI50 (NCI-H23): 3.54 µM
- CC50 (NCI-H23; [1]): > 100 µM
- GI50 (NCI-H226): 6.17 µM
- CC50 (NCI-H226; [1]): 60.6 µM
- GI50 (A549): 3.26 µM
- CC50 (A549; [1]): 62.5 µM
